Measured values from US20110104301A1, “METHODS OF REDUCING PAIN AND INFLAMMATION” (Georgetown University, A Congressionally Chartered …, priority 2008, published 2011).

Legend:
DRG neurons = experiment: Ca2+ imaging in DRG neurons from wild-type mice; assay type: cell-based, mouse; settings: 1.5 mM, 3 MAC
Procedure: Ca^2+ Imaging. Neurons were loaded with 1 μM Fluo4-AM (Molecular Probes) for 20 min and washed for a further 10-20 min before recording. The dye was excited at 488±15 nm. Emitted fluorescence was filtered with a 535±25 nm bandpass filter, captured by a SPOT RT digital camera (Diagnostic Instruments) and read into a computer. Analysis was performed offline by using Simple PCI software (Compix Inc.).

mouse TRPA1 = biological target: T1, mouse TRPA1 (Mus musculus, UniProt Q8BLA8); experiment: Current-voltage recordings in mTRPA1-expressing HEK293 cells; assay type: cell-based; settings: desflurane 1 mM
T1 construct: expressed in transfected cells; host or cells: HEK293
Procedure: (§1) A genetic approach was used to identify critical sites in TRPA1 and TRPV1 required for activation by general anesthetics. Drosophila TRPA1 is insensitive to desflurane (at concentrations up to 3 mM). […] Note that dTRPA1 is insensitive to AITC. Next, several chimeric TRP proteins containing dTRPA1 (unresponsive to desflurane) and mTRPA1 were tested. For the dTRPA1-mN chimera, the mouse 720 amino acid N-terminus was exchanged for the drosophila N-terminus. The N-terminal domain contains essential binding sites for AITC, and therefore studying this chimera tests an important role for the N-terminus in anesthetic-sensing. […] The mTRPA1-dTM5 construct was then studied, which is the mouse protein containing the fifth transmembrane domain of the drosophila protein.

dTRPA1-mN chimera = biological target: T2, dTRPA1-mN chimera (UniProt Q7Z020+Q8BLA8); experiment: Current-voltage recordings of chimera dTRPA1-mN; assay type: cell-based; settings: mouse N-terminus substituted
T2 construct: mouse TRPA1 N-terminus (720 amino acids); expressed in transfected cells
Procedure: as §1

mTRPA1-dTM5 = experiment: Current-voltage recordings of chimera mTRPA1-dTM5; assay type: cell-based
Procedure: as §1

mice = experiment: AITC (mustard oil)-induced ear swelling, neurogenic inflammation during anesthesia; assay type: in vivo, mouse; settings: 1.2 MAC
Procedure: Behavioral Experiments and Neurogenic Inflammation. Animal experiments were performed according to National Institutes of Health and institutional guidelines. […] Nocifensive behavior (nose wiping in sawdust bedding) was recorded for 2 min with a video camera and the duration was subsequently measured by a blinded observer. […] Electromyographic (EMG) activity was recorded via platinum electrodes from the semitendinosus muscle in mice anesthetized with urethane (1.3 g/kg) as described in Ando and Watanabe, Br J. Anaesth. […] The EMG signal was recorded by using a low-pass cutoff frequency of 200 Hz and integrated offline by using a 100-ms time window. […] Ear thickness was recorded by using an engineer's micrometer (Mitutoyo Corp.) before mustard-oil application and thereafter every 15 min for 60 min of anesthesia and 60 min of recovery.

TRPV1 = TRPV1 (Rattus norvegicus, UniProt O35433); experiment: Whole-cell patch-clamp of TRPV1-expressing HEK293 cells; assay type: cell-based; set-up: expressed in transfected cells; host or cells: HEK 293F (Invitrogen), co-transfected with GFP cDNA
Procedure: Electrophysiology. […] Whole-cell and single-channel patch-clamp recordings were performed by using an EPC8 amplifier (HEKA Electronics). For whole-cell and excised patch recordings the bath solution contained 140 mMNaCl, 4 mMKCl, 1 mMMgCl2, 1.2 mMCaCl2, 10 mMHepes, 10 mM glucose, pH 7.3. For cell-attached experiments, NaCl was replaced with KCl in the bath solution. […] For neuronal recording NaCl was replaced with K-gluconate (plus 1 mMATP, 0.2 mM GTP). Solutions were applied via a gravity-fed system. […] Voltage-dependent properties were measured as described in Matt and Ahern, J. Physiol. […] The baseline currents under control conditions were subtracted. For cell-attached experiments, peak amplitudes were measured from all-points histograms, and open probability was measured as NPo>750 ms. Defolliculated Xenopus laevis oocytes were injected with ≈10 ng of hTRPA1 (gift of Ardem Patapoutian, The Scripps Research Institute, La Jolla, Calif.).
HEK cell and sensory neuron electrophysiology. […] Cell cultures were maintained at 37° C. with 5% CO2. Cells were transfected with rat TRPV 1 (gift of David Julius), and GFP cDNA using Lipofectamine™ Transfection Reagent (Invitrogen) and used 24-48 h after transfection. Nodose ganglia were obtained from adult mice (C57B16/J and TRPV1-null), cut, digested with collagenase, and cultured in Neurobasal +2% B-27 medium (Invitrogen), 0.1% L-glutamine and 1% penicillin/streptomycin on poly-D lysine-coated glass coverslips at 37° C. in 5% CO2. Neurons were used within 24-36 hr of culture. Whole-cell and single-channel patch clamp recordings were performed using an EPC8 amplifier (HEKA). The current signal was low-pass filtered at 1-3 kHz and sampled at 4 kHz. Currents were further filtered for display purposes. For whole-cell and excised patch recordings the bath solution contained (in mM): 140 NaCl, 4 KCl, 1 MgCl2, 1 EGTA, 10 HEPES, 10 glucose pH 7.3 (290 mOsm). The pipette solution contained (in mM): 140 CsC1, 10 NaCl, 10 HEPES, 5 EGTA, 2 Mg ATP and 0.03 GTP, pH 7.3. The peak amplitudes measured either during the prepulse or the tail current (within 1 ms) were plotted as a function of the test potential and normalized to the maximal current obtained from the following Boltzmann function: […]

Chain of TRPV1 (O35433 whole entry): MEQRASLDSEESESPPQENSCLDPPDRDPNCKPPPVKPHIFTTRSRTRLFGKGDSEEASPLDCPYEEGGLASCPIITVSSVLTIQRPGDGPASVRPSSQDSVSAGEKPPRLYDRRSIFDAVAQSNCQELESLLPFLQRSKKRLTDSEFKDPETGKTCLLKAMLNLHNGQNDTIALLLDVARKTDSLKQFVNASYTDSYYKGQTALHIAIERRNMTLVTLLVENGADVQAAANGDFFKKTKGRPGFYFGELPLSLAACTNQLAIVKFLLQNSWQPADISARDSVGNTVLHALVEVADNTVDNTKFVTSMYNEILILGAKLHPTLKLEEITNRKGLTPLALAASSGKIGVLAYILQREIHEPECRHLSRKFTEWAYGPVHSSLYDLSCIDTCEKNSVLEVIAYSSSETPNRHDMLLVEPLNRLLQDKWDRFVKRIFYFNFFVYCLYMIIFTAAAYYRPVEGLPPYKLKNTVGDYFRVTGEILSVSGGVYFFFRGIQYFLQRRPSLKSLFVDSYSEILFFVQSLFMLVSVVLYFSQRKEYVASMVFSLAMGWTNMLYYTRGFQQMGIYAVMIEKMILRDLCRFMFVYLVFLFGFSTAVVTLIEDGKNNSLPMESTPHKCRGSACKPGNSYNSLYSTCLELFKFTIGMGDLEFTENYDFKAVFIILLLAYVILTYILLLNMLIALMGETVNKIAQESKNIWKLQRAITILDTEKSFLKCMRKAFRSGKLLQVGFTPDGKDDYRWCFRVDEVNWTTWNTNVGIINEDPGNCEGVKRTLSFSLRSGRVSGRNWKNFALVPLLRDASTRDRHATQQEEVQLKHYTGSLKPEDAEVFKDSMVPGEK
T2 sequence (Q8BLA8+Q7Z020 fused, change not shown): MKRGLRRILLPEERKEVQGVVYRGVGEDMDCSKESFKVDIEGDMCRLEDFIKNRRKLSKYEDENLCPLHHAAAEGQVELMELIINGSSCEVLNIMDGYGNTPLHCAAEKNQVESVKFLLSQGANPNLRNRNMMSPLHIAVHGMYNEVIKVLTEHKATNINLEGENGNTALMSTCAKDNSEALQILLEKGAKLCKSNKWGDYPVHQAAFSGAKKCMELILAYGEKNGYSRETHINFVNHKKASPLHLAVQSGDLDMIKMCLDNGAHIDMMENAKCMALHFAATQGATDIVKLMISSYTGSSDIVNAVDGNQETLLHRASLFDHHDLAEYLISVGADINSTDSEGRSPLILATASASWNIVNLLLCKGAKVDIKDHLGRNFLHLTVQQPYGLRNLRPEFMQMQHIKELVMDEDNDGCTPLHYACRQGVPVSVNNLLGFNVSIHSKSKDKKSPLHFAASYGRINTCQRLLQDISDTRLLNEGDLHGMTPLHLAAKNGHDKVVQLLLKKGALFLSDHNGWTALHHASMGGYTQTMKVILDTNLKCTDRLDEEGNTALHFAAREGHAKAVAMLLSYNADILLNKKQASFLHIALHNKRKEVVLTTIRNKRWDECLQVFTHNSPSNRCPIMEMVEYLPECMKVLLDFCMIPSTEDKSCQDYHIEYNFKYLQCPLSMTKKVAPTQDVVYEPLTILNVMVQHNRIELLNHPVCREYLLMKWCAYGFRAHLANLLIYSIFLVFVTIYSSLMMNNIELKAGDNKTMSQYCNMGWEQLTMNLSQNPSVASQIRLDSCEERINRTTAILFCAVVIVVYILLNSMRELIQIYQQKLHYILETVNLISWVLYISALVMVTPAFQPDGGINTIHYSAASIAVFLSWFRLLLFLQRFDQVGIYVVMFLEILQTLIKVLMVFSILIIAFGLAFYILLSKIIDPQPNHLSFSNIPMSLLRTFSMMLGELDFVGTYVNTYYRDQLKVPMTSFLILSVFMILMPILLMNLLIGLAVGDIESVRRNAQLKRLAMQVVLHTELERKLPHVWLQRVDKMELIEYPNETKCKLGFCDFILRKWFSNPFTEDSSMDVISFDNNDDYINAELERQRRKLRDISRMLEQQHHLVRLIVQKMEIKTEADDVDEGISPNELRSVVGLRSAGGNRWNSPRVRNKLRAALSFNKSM
T1 sequence (Q8BLA8 whole entry): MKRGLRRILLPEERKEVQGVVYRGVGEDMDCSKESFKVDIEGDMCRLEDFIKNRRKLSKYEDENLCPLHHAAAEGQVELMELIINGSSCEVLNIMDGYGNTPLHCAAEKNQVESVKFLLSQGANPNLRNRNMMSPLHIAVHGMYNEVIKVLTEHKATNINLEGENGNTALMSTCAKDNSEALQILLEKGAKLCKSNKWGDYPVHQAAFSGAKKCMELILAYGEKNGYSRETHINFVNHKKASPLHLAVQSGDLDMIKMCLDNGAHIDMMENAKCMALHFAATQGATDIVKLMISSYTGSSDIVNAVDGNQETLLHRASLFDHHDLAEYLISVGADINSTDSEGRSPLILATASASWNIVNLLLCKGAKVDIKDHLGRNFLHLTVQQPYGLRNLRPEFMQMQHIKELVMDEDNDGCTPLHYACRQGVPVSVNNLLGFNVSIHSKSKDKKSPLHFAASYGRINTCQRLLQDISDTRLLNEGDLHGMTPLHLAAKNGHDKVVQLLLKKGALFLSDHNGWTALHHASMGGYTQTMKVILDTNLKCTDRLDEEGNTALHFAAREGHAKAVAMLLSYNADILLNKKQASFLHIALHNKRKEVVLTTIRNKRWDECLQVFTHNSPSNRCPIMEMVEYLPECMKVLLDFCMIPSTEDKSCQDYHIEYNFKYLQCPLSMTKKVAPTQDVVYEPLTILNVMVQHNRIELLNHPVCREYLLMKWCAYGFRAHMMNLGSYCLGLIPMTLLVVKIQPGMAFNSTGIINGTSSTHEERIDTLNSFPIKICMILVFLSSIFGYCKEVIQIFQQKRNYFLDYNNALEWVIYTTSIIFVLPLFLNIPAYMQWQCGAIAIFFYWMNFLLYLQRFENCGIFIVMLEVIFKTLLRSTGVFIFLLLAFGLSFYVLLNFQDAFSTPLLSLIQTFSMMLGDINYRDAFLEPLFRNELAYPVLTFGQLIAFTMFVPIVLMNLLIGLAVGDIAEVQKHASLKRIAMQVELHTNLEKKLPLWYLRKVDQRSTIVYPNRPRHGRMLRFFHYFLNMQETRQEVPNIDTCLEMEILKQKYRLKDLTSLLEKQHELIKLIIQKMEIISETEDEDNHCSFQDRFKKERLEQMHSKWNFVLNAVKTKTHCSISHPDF

SMILES	Neurons with evoked Ca2+ increase (DRG neurons)	Activation of mouse TRPA1 (mouse TRPA1)	Response of dTRPA1-mN chimera (dTRPA1-mN chimera)	Sensitivity of mTRPA1-dTM5 chimera (mTRPA1-dTM5)	AITC-induced ear swelling during anesthesia, compared with sevoflurane (mice; AITC 0.6%, 15-120 min, n=7, P<0.01)	Swelling in the unpainted ear (mice; at 90 and 120 min)	Activation of TRPV1 currents (TRPV1; 0.9 mM (2.9 MAC))	Currents evoked after PDBu treatment in TRPV1-expressing HEK293 cells (TRPV1; VGA 0.9 mM, PDBu 500 nM, room temperature (25° C.))	Effect on TRPV1 when applied together with saturating octanol (TRPV1; isoflurane 0.9 mM + octanol 1.8 mM)	Enhancement of maximal voltage-evoked TRPV1 current (TRPV1; isoflurane 0.9 mM, n=5)	Reduction of TRPV1 V1/2 (TRPV1; isoflurane 0.9 mM, n=5)	Effects at TRPV1 at holding potential −50 mV (TRPV1; isoflurane 0.9 mM, octanol 1 mM)	V1/2 of TRPV1 voltage activation with isoflurane (Boltzmann fit) (TRPV1; isoflurane 0.9 mM, control 161.5±2.7 mV)
FC(F)OC(F)C(F)(F)F (stereo not shown) [desflurane]	36 of 123	activates	no responses	abolished									
FC(F)OC(Cl)C(F)(F)F (stereo not shown) [isoflurane]					significantly greater swelling	small increase in swelling	failed to activate	activates currents	negligible effects	15±6%	23.0±6.2 mV	negligible effects	129.0±3.6 mV
